Consider 16 molecules from PubChem BioAssay AID330 (DTP/NCI, 2004).

“And” between values parts separate entries of the source, which are not always exact repeats. Equal values may be shown once. Toxic doses and inconclusive results are not listed.

The subject of the assay is P388 leukemia ip, CD2F1 mice, survival T/C. Nature of the assay: NCI In Vivo Anticancer Drug Screen. Data for tumor model P388 Leukemia (intraperitoneal) in CD2F1 (CDF1) mice. The following applies: endpoint: median survival time, higher = longer survival. The method, boiled down:
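Mice carrying the transplanted tumor received test compound or vehicle. Survival was recorded in each group, and the value is the treated-group measurement divided by that of the vehicle-treated control group.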

Where [1] appears, read: dose: 50.0 mg/kg/injection, schedule: Q01DX009 (ip), vehicle: saline.
Setting [2] is: dose: 100.0 mg/kg/injection, schedule: Q01DX009 (ip), vehicle: saline.
Where [3] appears, read: dose: 200.0 mg/kg/injection, schedule: Q01DX009 (ip), vehicle: saline.
Setting [4] is: dose: 60.0 mg/kg/injection, schedule: Q01DX005 (ip), vehicle: Klucel (hydroxypropylcellulose) (HPC).
[5] abbreviates: dose: 120.0 mg/kg/injection, schedule: Q01DX005 (ip), vehicle: Klucel (hydroxypropylcellulose) (HPC).
[6] abbreviates: dose: 240.0 mg/kg/injection, schedule: Q01DX005 (ip), vehicle: Klucel (hydroxypropylcellulose) (HPC).
Where [7] appears, read: dose: 50.0 mg/kg/injection, schedule: Q01DX009 (ip), vehicle: saline with Tween-80.
[8] abbreviates: dose: 100.0 mg/kg/injection, schedule: Q01DX009 (ip), vehicle: saline with Tween-80.
Setting [9] is: dose: 200.0 mg/kg/injection, schedule: Q01DX009 (ip), vehicle: saline with Tween-80.
Setting [10] is: dose: 400.0 mg/kg/injection, schedule: Q01DX009 (ip), vehicle: saline with Tween-80.

Take `ClCCN(CCCN(CCCl)c1ccccc1)c1ccccc1`: the T/C (dose: 200.0 mg/kg/injection, schedule: Q01DX001 (ip), vehicle: saline with Tween-80) is 164 % of control; the T/C (dose: 400.0 mg/kg/injection, schedule: Q01DX001 (ip), vehicle: saline with Tween-80) was 150 % of control and 157 % of control; the T/C (dose: 800.0 mg/kg/injection, schedule: Q01DX001 (ip), vehicle: saline with Tween-80) is 160 % of control.

In the case of `CC(Cl)CN1CC(C)OC1=O` (configuration not stated), the T/C was 105 % of control (dose: 25.0 mg/kg/injection, schedule: Q01DX001 (ip), vehicle: saline); 102 % of control (dose: 50.0 mg/kg/injection, schedule: Q01DX001 (ip), vehicle: saline); 108 % of control (dose: 100.0 mg/kg/injection, schedule: Q01DX001 (ip), vehicle: saline); 108 % of control (dose: 200.0 mg/kg/injection, schedule: Q01DX001 (ip), vehicle: saline).

In the case of `C[Si]c1ccccc1CN(C)C`, the T/C was 106 % of control (dose: 50.0 mg/kg/injection, schedule: Q01DX005 (ip), vehicle: saline) and 102 % of control (dose: 100.0 mg/kg/injection, schedule: Q01DX005 (ip), vehicle: saline).

Take `N#CNC(=O)c1cccnc1`: the T/C runs as follows: under setting [1], 99 % of control; under setting [2], 94 % of control; under setting [3], 99 % of control.

`COc1cc(/C=C2/C(=O)N(c3ccccc3)N=C2C)cc(OC)c1OC`: the T/C was 108 % of control under setting [4], 104 % of control under setting [5] and 105 % of control under setting [6].

Turning to `CCOC(=O)C(CC)C(=O)c1ccccc1` (configuration not stated), the T/C was 105 % of control (dose: 75.0 mg/kg/injection, schedule: Q01DX009 (ip), vehicle: saline with Tween-80); 109 % of control (dose: 150.0 mg/kg/injection, schedule: Q01DX009 (ip), vehicle: saline with Tween-80); 112 % of control (dose: 300.0 mg/kg/injection, schedule: Q01DX009 (ip), vehicle: saline with Tween-80).

For the molecule `c1ccc2c(c1)Nc1c(ccc3ccccc13)S2`, the T/C reads like this: under setting [7], 95 % of control; under setting [1], 102 % of control; under setting [8], 112 % of control; under setting [2], 98 % of control; under setting [9], 113 % of control; under setting [3], 109 % of control. Besides, the T/C reads like this: under setting [10], 113 % of control; (dose: 400.0 mg/kg/injection, schedule: Q01DX009 (ip), vehicle: saline) 100 % of control.

`Cn1c(=O)ccc2c1nc1ccccc1[n+]2[O-]`: the T/C was 101 % of control (dose: 60.0 mg/kg/injection, schedule: Q01DX005 (ip), vehicle: saline with Tween-80) and 102 % of control (dose: 120.0 mg/kg/injection, schedule: Q01DX005 (ip), vehicle: saline with Tween-80).

Take `CSc1nc(=O)c(=O)nc(Nc2ccccc2)n1-c1ccccc1`: the T/C runs as follows: under setting [7], 86 % of control; under setting [9], 87 % of control.

As for `COc1cccc2c1C(=O)c1c(O)c3c(c(O)c1C2=O)CC(O)(C(C)=O)CC3OC1CC(SC)C(OC(C)=O)C(C)O1` (configuration not stated), the T/C runs as follows: (dose: 3.13 mg/kg/injection, schedule: Q04DX003 (ip), vehicle: distilled water + Tween-80) 100 % of control; (dose: 3.13 mg/kg/injection, schedule: Q04DX003 (ip), vehicle: water) 101 % of control; (dose: 6.25 mg/kg/injection, schedule: Q04DX003 (ip), vehicle: distilled water + Tween-80) 105 % of control; (dose: 6.25 mg/kg/injection, schedule: Q04DX003 (ip), vehicle: water) 96 % of control; (dose: 12.5 mg/kg/injection, schedule: Q04DX003 (ip), vehicle: distilled water + Tween-80) 97 % of control; (dose: 12.5 mg/kg/injection, schedule: Q04DX003 (ip), vehicle: water) 97 % of control. Also, the T/C runs as follows: (dose: 25.0 mg/kg/injection, schedule: Q04DX003 (ip), vehicle: distilled water + Tween-80) 100 % of control; (dose: 25.0 mg/kg/injection, schedule: Q04DX003 (ip), vehicle: water) 100 % of control; (dose: 50.0 mg/kg/injection, schedule: Q04DX003 (ip), vehicle: distilled water + Tween-80) 110 % of control; (dose: 50.0 mg/kg/injection, schedule: Q04DX003 (ip), vehicle: water) 96 % of control.

`CC1(C)OC(=O)NC1c1ccccc1` (configuration not stated): the T/C is 100 % of control (dose: 6.25 mg/kg/injection, schedule: Q01DX009 (ip), vehicle: saline with Tween-80); 99 % of control (dose: 12.5 mg/kg/injection, schedule: Q01DX009 (ip), vehicle: saline with Tween-80); 117 % of control (dose: 25.0 mg/kg/injection, schedule: Q01DX009 (ip), vehicle: saline with Tween-80).

Take `OC1COC(c2nn(-c3ccccc3)c3nc4ccccc4nc23)C1O` (configuration not stated): the T/C was 87 % of control (dose: 50.0 mg/kg/injection, schedule: Q01DX005 (ip), vehicle: saline with Tween-80); 87 % of control (dose: 100.0 mg/kg/injection, schedule: Q01DX005 (ip), vehicle: saline with Tween-80); 87 % of control (dose: 200.0 mg/kg/injection, schedule: Q01DX005 (ip), vehicle: saline with Tween-80).

For `CNC(=O)Oc1ccc2c(c1)[C@]1(C)CCN(C)O[C@@H]1N2C`, the T/C reads like this: (dose: 0.79 mg/kg/injection, schedule: Q01DX005 (ip), vehicle: Klucel (hydroxypropylcellulose) (HPC)) 100 % of control; (dose: 1.56 mg/kg/injection, schedule: Q01DX005 (ip), vehicle: Klucel (hydroxypropylcellulose) (HPC)) 100 % of control.

For the molecule `CSc1cc(C)c(O)c(CO)c1`, the T/C is 104 % of control (dose: 100.0 mg/kg/injection, schedule: Q04DX003 (ip), vehicle: other); 100 % of control (dose: 200.0 mg/kg/injection, schedule: Q04DX003 (ip), vehicle: other); 100 % of control (dose: 400.0 mg/kg/injection, schedule: Q04DX003 (ip), vehicle: other).

`Cc1cc(=O)oc2c(-c3ccccc3)nnc(Cl)c12`: the T/C by setting is: under setting [4], 98 % of control; under setting [5], 96 % of control; under setting [6], 95 % of control.

Consider `O=C(CCl)C(c1ccc([N+](=O)[O-])cc1)c1ccc([N+](=O)[O-])cc1`, for which the T/C is 100 % of control under setting [8], 95 % of control under setting [9] and 118 % of control under setting [10].
